Assay results published in patent publication US11667602B2, “Compounds and their use” (AstraZeneca AB, priority 2020, dated 2023).
≈ marks a conversion by molar mass, not a printed value.

Experiments:
[1] = Rat Hepatocyte Stability (Test E); assay type: in vitro ADME; details: geometric mean if run multiple times; for hepatocyte CLint: rat, hepatocytes
Method in brief: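 Run per the published AstraZeneca-type rat hepatocyte stability protocol (Wernevik et al. panel). Values are mean intrinsic clearance, Clint in μl/min/10^6 cells; geometric mean used for repeated runs.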

Solubility (Test F) = assay type: physicochemical; details: arithmetic mean if run multiple times
Description: The assay was conducted according to the Solubility Assay described in pages 164-167 of Wernevik, J. et al., “A Fully Integrated Assay Panel for Early Drug Metabolism and Pharmacokinetics Profiling”, Assay and Drug Development Technologies, 2020, 18(4), 157-179. Data are reported in Table 36 as solubility ([…]. Where the assay was run multiple times for the same compound, the arithmetic mean is reported.

[2] = Human Liver Microsomal Stability (Test C); assay type: in vitro ADME; details: for microsomal CLint: human, liver microsomes
Method in brief: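 Human liver microsome incubation per the Wernevik et al. integrated DMPK panel protocol. Intrinsic clearance reported as CLint in μl/min/mg protein, averaged arithmetically over repeat runs.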

[3] = Human Plasma Protein Binding (Test B); assay type: in vitro ADME; details: fraction unbound (fu)
Method in brief: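 Human plasma protein binding run per the published Wernevik et al. (2020) integrated DMPK panel protocol. Values are fraction unbound (fu, % free); repeat runs averaged arithmetically.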

[4] = Human Hepatocyte Stability (Test D); assay type: in vitro ADME; details: geometric mean if run multiple times; for hepatocyte CLint at 1 µM: human, cryopreserved pooled human hepatocytes (LiverPool 10-Donor)
Method in brief: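 Pooled 10-donor cryopreserved human hepatocytes (≥80% viable) in L-15 medium at 0.25×10^6 cells per 0.25 mL well. Compound added from 100 μM acetonitrile solution; incubated at 37 °C with shaking, acetonitrile-quenched, LC-MS analysed. Clint (μL/min/10^6 cells) from ln % parent vs time slope; geometric mean of repeat runs.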

human RXFP1 = biological target: T1, human RXFP1 (Homo sapiens, UniProt Q9HBX9); assay: RXFP1 Hu cAMP (Test A); assay type: cell-based; set-up: expressed in transfected cells; host or cells: Jump-In T-REx CHO-K1 cells (ThermoFisher), induced with 10 ng/ml doxycycline for 24 h; details: RXFP1 Hu cAMP; for EC50: read-out: Test A EC50
T1 sequence (Q9HBX9 1-757): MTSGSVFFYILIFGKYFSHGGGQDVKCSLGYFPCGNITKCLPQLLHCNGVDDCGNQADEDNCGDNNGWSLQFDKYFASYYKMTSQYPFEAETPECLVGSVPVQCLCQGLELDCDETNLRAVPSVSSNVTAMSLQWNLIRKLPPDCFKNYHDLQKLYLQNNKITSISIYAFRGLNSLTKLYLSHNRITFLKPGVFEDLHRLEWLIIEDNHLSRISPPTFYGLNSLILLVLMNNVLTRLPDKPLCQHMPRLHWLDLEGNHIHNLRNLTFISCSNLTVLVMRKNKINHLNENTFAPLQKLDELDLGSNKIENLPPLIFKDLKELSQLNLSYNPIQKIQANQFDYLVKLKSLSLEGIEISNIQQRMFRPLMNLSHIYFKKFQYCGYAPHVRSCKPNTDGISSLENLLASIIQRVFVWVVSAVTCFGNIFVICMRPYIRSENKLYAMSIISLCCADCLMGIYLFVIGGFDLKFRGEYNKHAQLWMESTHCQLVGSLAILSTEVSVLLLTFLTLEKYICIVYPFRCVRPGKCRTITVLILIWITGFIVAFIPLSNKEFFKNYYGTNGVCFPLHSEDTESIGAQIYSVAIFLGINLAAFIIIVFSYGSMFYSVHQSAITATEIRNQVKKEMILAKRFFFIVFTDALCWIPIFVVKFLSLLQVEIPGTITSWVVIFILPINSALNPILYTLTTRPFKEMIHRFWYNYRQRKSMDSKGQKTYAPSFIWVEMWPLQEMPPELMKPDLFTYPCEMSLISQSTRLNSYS
Method in brief: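 Read-out is HTRF signal, inversely proportional to cAMP, converted to cAMP amount by standard curve. Stimulation occurred in inducible CHO-K1 cells expressing the human receptor with phosphodiesterases blocked by 0.5 mM IBMX.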

Structure (SMILES) | hepatocyte CLint [1] [µL/min/1e6 cells] | solubility (Solubility (Test F)) [µM] | microsomal CLint [2] [µL/min/mg] | Test B Human Plasma Protein Binding (% free) [3] [% free] | hepatocyte CLint at 1 µM [4] [µL/min/1e6 cells] | Test A Sinf (human RXFP1) [%] | EC50 (human RXFP1) [nM] | Test E Rat Hepatocyte Stability Clint ([1]; rat hepatocytes) [μL/min/10^6 cells] | Test C Human Liver Microsomal Stability Clint ([2]; human liver microsomes) [µL/min/mg] | Test D Human Hepatocyte Stability Clint ([4]; human hepatocytes) [μL/min/10^6 cells]
COc1cc(F)c(O[C@H]2CC[C@@H](C(=O)O)CC2)cc1C(=O)N[C@@H]1CCC[C@@H]1C(=O)Nc1cccc(S(=O)(=O)C(F)(F)F)c1 [Example 490] | 16 | 940 (≈ 593 µg/mL) | 30 | 1.9 | 17 | 127 | 300 | – | – | –
CCC(CC)CNC(=O)[C@H]1[C@@H]2CC[C@@H](C2)[C@H]1NC(=O)c1cc(OC2CCC(C)(C(=O)O)CC2)c(F)cc1OC (stereo partly drawn) [Example 43] | 25 | 770 (≈ 421 µg/mL) | 33 | 1.3 | 5 | 106 | 83 | – | – | –
COc1cc(C#N)c(O[C@H]2CC[C@@](C)(C(=O)O)CC2)cc1C(=O)N[C@H]1C2CCC(CC2)[C@H]1C(=O)NCC1(C)CCC1 (relative stereo) [Example 539, (1R,4s)-4-(2-Cyano-4-methoxy-5-(((2S*,3R*)-3-(((1-methylcyclobutyl)methyl)carbamoyl)bicyclo[2.2.2]octan-2-yl)carbamoyl)phenoxy)-1-methylcyclohexane-1-carboxylic acid] | – | 700 (≈ 396 µg/mL) | – | 3.2 | – | 102 | 3.1 | 28 | 63 | 64
COc1cc(F)c(O[C@H]2C[C@H](C(=O)O)C2)cc1C(=O)NC1[C@H]2CC[C@H](C2)[C@@H]1C(=O)Nc1cccc(S(=O)(=O)C(F)(F)F)c1 (stereo partly drawn) [Example 443] | 21 | 760 (≈ 478 µg/mL) | 31 | 1.5 | 26 | 101 | 540 | – | – | –
CCC(CC)[C@@H](C)NC(=O)[C@H]1[C@@H]2CC[C@@H](C2)[C@H]1NC(=O)c1cc(O[C@H]2CC[C@@](C)(C(=O)O)CC2)c(F)cc1OC (single isomer, unassigned) [Example 145, (1S,4s)-4-(5-(((1S,2R,3S,4R)-3-(((R*)-3-Ethylpentan-2-yl)carbamoyl)bicyclo[2.2.1]heptan-2-yl)carbamoyl)-2-fluoro-4-methoxyphenoxy)-1-methylcyclohexane-1-carboxylic acid] | 53 | 870 (≈ 488 µg/mL) | 180 | 0.81 | 14 | 95 | 1300 | – | – | –
COc1cc(F)c(O[C@H]2CC[C@@H](C(N)=O)CC2)cc1C(=O)N[C@H]1[C@@H](C(=O)Nc2ccc(F)c(C(F)(F)F)c2)[C@@H]2C=C[C@H]1C2 [Example 499, (1S,2S,3R,4R)-3-(5-(((1s,4S)-4-Carbamoylcyclohexyl)oxy)-4-fluoro-2-methoxybenzamido)-N-(4-fluoro-3-(trifluoromethyl)phenyl)bicyclo[2.2.1]hept-5-ene-2-carboxamide] | 96 | 13 (≈ 7.9 µg/mL) | 200 | 0.51 | 28 | 128 | 100 | – | – | –
COc1cc(F)c(O[C@H]2CC[C@@](C)(C(=O)O)CC2)cc1C(=O)N[C@@H]1[C@H]2CC[C@H](C2)[C@@H]1C(=O)N[C@@H]1CCCN(S(=O)(=O)C(F)(F)F)C1 [Example 604] | 14 | 10 (≈ 6.78 µg/mL) | 110 | 6.7 | 13 | 105 | 110 | – | – | –

Now from value to compound, other results behind:

hepatocyte CLint [1] [µL/min/1e6 cells] | solubility (Solubility (Test F)) [µM] | microsomal CLint [2] [µL/min/mg] | Test B Human Plasma Protein Binding (% free) [3] [% free] | hepatocyte CLint at 1 µM [4] [µL/min/1e6 cells] | Test A Sinf (human RXFP1) [%] | EC50 (human RXFP1) [nM] | Structure (SMILES) | Test E Rat Hepatocyte Stability Clint ([1]; rat hepatocytes) [μL/min/10^6 cells] | Test C Human Liver Microsomal Stability Clint ([2]; human liver microsomes) [µL/min/mg] | Test D Human Hepatocyte Stability Clint ([4]; human hepatocytes) [μL/min/10^6 cells]
12 | 800 (≈ 447 µg/mL) | 66 | 2.5 | 32 | 110 | 11 | COc1cc(F)c(OC2CCC(C)(C(=O)O)CC2)cc1C(=O)NC1C2CCC(CC2)C1C(=O)NCC1(C)CCC1 (single isomer, unassigned) [Example 542, (1R,4s)-4-(2-Fluoro-4-methoxy-5-(((2S*,3R*)-3-(((1-methylcyclobutyl)methyl)carbamoyl)bicyclo[2.2.2]octan-2-yl)carbamoyl)phenoxy)-1-methylcyclohexane-1-carboxylic acid] | – | – | –
19 | 1000 (≈ 564 µg/mL) | 20 | 6 | 8.5 | 104 | 20 | COc1cc(C#N)c(O[C@H]2CC[C@@](C)(C(=O)O)CC2)cc1C(=O)NC1C2C=CC(CC2)C1C(=O)NCC1(C)CCC1 (single isomer, unassigned) [Example 540, (1R,4s)-4-(2-Cyano-4-methoxy-5-(((1R*,2S*,3R*,4S*)-3-(((1-methylcyclobutyl)methyl)carbamoyl)bicyclo[2.2.2]oct-5-en-2-yl)carbamoyl)phenoxy)-1-methylcyclohexane-1-carboxylic acid] | – | – | –
22 | 1000 (≈ 667 µg/mL) | 23 | 0.13 | 12 | 115 | < 3.6 | COc1cc(F)c(O[C@H]2CC[C@@H](C(=O)O)CC2)cc1C(=O)N[C@H]1[C@@H](C(=O)Nc2ccc(F)c(S(F)(F)(F)(F)F)c2)[C@@H]2C=C[C@H]1C2 [Example 488, (1S,4s)-4-(2-fluoro-5-(((1R,2R,3S,4S)-3-((4-fluoro-3-(pentafluoro-λ6-sulfaneyl)phenyl)carbamoyl)bicyclo[2.2.1]hept-5-en-2-yl)carbamoyl)-4-methoxyphenoxy)cyclohexane-1-carboxylic acid] | – | – | –
22 | 810 (≈ 436 µg/mL) | 8.7 | 13 | 4.9 | 133 | 55 | COc1cc(C#N)c(O[C@H]2CC[C@@](C)(C(=O)O)CC2)cc1C(=O)N[C@@H]1[C@H]2CC[C@H](C2)[C@@H]1C(=O)NCC1(C)CC1 [Example 98] | – | – | –
22 | 830 (≈ 454 µg/mL) | 27 | 3.8 | 4.8 | 103 | 20 | CCC(C)(C)CNC(=O)[C@H]1[C@@H]2CC[C@@H](C2)[C@H]1NC(=O)c1cc(O[C@H]2CC[C@@](C)(C(=O)O)CC2)c(F)cc1OC [Example 37, (1S,4s)-4-(5-(((1S,2R,3S,4R)-3-((2,2-Dimethylbutyl)carbamoyl)bicyclo[2.2.1]heptan-2-yl)carbamoyl)-2-fluoro-4-methoxyphenoxy)-1-methylcyclohexane-1-carboxylic acid] | – | – | –
